According to patent publication US8053553B2, “Targeting host proteinases as a therapeutic strategy against viral and bacterial pathogens” (Socpra Sciences Sante Et Humaines, priority 2007, dated 2011):
Non-standard residues stand in square brackets, D forms with d. Residues, ends and D or L forms follow the SMILES beside them. No end group written: not given here. βAla = NCCC(=O)O

Assays:
[1] = system: B. anthracis Sterne spores; design: species or system A/J mice; conditions: mouse, in vivo
[2] = system: Pseudomonas exotoxin A (PEx); experiment: Lethal action of Pseudomonas exotoxin A in mice; type: in vivo, C57/BL6 mice
Description: A similar set of experiments was carried out with an unrelated toxin, Pseudomonas exotoxin A. Consistent with the earlier data (Chiron, M. F., et al. 1997), Pseudomonas exotoxin A (PEx) was resistant to PC cleavage at pH 7.5 but following unfolding at pH 5.5 PEx (66 kDa) was readily processed by furin, PC4 and PC5/6 to produce the 28 kDa N-terminal fragment and the toxic 37 kDa Cterminal fragment (FIG. 3A). C57/BL6 mice (5 mice/group) received one intramuscular injection of PEx (500 ng/animal; 2xLD50; Fogle, M. R., et al. 2002) and one injection of the […] (SEQ ID NO:212) peptide (12.5 mg/kg i.p.) either 24 h prior to toxin injection or simultaneously with toxin. Another group of mice, after receiving one injection of the peptide 24 h prior to toxin injection, continued to receive daily injections of the peptide for the remainder of the experiment.
C57/BL6 mice (5 mice/group) received one intramuscular injection of PEx (500 ng/animal; 2xLD50; Fogle, M. R., et al. 2002). Mice received one injection of the […] (SEQ ID NO:212) peptide (12.5 mg/kg i.p.) either 24 h prior to toxin injection or simultaneously with toxin. Additional group of mice after receiving one injection of the peptide 24 h prior to toxin injection continued to receive daily injections of the peptide for the remainder of the experiment (FIG. 3B).

β-Ala-TPRARRRKKRT-amide ([βAla]TPRARRRKKRT-NH2; N-terminus assumed; SMILES C[C@H](NC(=O)[C@H](CCCNC(=N)N)NC(=O)[C@@H]1CCCN1C(=O)[C@@H](NC(=O)CCN)[C@@H](C)O)C(=O)N[C@@H](CCCNC(=N)N)C(=O)N[C@@H](CCCNC(=N)N)C(=O)N[C@@H](CCCNC(=N)N)C(=O)N[C@@H](CCCCN)C(=O)N[C@@H](CCCCN)C(=O)N[C@@H](CCCNC(=N)N)C(=O)N[C@H](C(N)=O)[C@@H](C)O)
protection of A/J mice from anthrax [1]: protect A/J mice from anthrax

C[C@H](NC(=O)[C@H](CCCNC(=N)N)NC(=O)[C@@H]1CCCN1C(=O)[C@@H](N)[C@@H](C)O)C(=O)N[C@@H](CCCNC(=N)N)C(=O)N[C@@H](CCCNC(=N)N)C(=O)N[C@@H](CCCNC(=N)N)C(=O)N[C@@H](CCCCN)C(=O)N[C@@H](CCCCN)C(=O)N[C@@H](CCCNC(=N)N)C(=O)N[C@H](C(N)=O)[C@@H](C)O (H-TPRARRRKKRT-NH2)
survival ([2]; C57/BL6 mice, PEx 500 ng/animal (2xLD50), peptide 12.5 mg/kg i.p. 24 h prior to toxin then daily injections): 60% | protection of mice from the toxic effect of PEx ([2]; peptide 12.5 mg/kg i.p. (FIG. 3)): protects mice from the toxic effect of Pseudomonas PEx | protection from LF-induced cytotoxicity (RAW 264.7 cells): protected cells from LF-induced cytotoxicity | infected mice protected from disease [1]: 40%

O=C(O)c1cn(C2CC2)c2cc(N3CCNCC3)c(F)cc2c1=O [Cipro, reference compound]
infected mice protected from disease [1]: 40% | protection of A/J mice from anthrax [1]: protect A/J mice from anthrax
